Reference: patent US8765717B2 (Monte Verde S.A., priority 2008, dated 2014)

Columns and labels:
[1] = test system: patients suffering from primary hip or knee arthritis (I, II or III); test: Clinical trial: Lequesne algo-functional index of severity; type: in vivo, humans; conditions: for Decrease in the Lequesne scale in the 25% of patients with enhanced recovery / Decrease in the Lequesne scale in the 25% of patients with enhanced recovery (percent): 25% of the patients
Protocol: (§1) Data from a clinical trial with humans is provided herein. The trial was performed with three arms, at random and blind, of patients suffering from different degrees of primary hip or knee arthritis (I, II or III). […] Pain and joint function performance was checked every fifteen days by using the pain VAS and the Lequesne algo-functional index of severity. The VAS assesses the pain in the knee by a visual scale of 100 mm with a total of 10 divisions wherein 0 means no pain and 10 means the deepest pain. […] The severity index is given by the addition of the scores obtained in each item, wherein 24 is the maximum possible score. The higher the index, the more severe is the clinical picture.

[2] = 37° C.; cited from earlier work
[3] = test system: patients suffering from primary hip or knee arthritis (I, II or III); test: Clinical trial: pain VAS; type: in vivo, humans; conditions: check-up visits every fifteen days
Protocol: as §1

[4] = patients in clinical trials; cited from earlier work

Compound | Decrease in the Lequesne scale in the 25% of patients with enhanced recovery ([1]; 90 days oral treatment) [scores] | Decrease in the Lequesne scale in the 25% of patients with enhanced recovery (percent) ([1]; 90 days oral treatment) [%] | Average improvement in the Lequesne index in 50% of the patients ([1]; 50% of the patients, 90 days oral treatment) [scores] | Lequesne scale (Algo-functional index) average decrease ([1]; 90 days, single daily oral dose, 1,500 mg glucosamine sulphate and/or 15 mg meloxicam) [%] | pKa [2] | Time after starting treatment at which VAS value showed the highest reduction [3] [days] | Occurrence of adverse gastrointestinal events (bleeding, perforation or ulcers) versus other nonsteroidal anti-inflammatory drugs [4]
N[C@H]1C(O)O[C@H](CO)[C@@H](O)[C@@H]1O (stereo partly drawn) [glucosamine, 2-amin-2 desoxy-alpha-D-glucose] | 3.75 | 32 | 1.5 | 11 | 6.91 | 30 | –
Cc1cnc(NC(=O)C2=C(O)c3ccccc3S(=O)(=O)N2C)s1 [meloxicam, (8E)-8-[hydroxy-[(5-methyl-1,3-thiazol-2-yl)amino]methylidene]-9-methyl-10,10-dioxo-10λ^6-thia-9-azabicyclo[4.4.0]deca-1,3,5-trien-7-one] | 4.5 | 38 | – | – | – | 15 | less frequent
